Drawing on patent publication US20060241101A1, “Novel benzimidazole derivatives and pharmaceutical compositions comprising these compounds” (priority 2003, published 2006), this text covers melting point for 5 compounds.

Structures can show the parent of a compound that is named as a salt.

Turning to `CCCCOC(=O)c1ccc2c(c1)ncn2-c1cccc(N2CCN(CCOCC)CC2)c1` (as salt: HCl) [Compound 1c, n-Butyl 1-(3-(4-(ethoxyethyl)-1-piperazinyl)-phenyl)-benzimidazole-5-carboxylate], the melting point fell in the range of 92 to 95 °C.

Take `CCOCCN1CCN(c2cccc(-n3cnc4cc(C(=O)OCC(C)C)ccc43)c2)CC1` (as salt: HCl) [Compound 1d, iso-Butyl 1-(3-(4-(ethoxyethyl)-1-piperazinyl)-phenyl)-benzimidazole-5-carboxylate]: the melting point was 154 to 160 °C.

Compound `COCCOC(=O)c1ccc2c(c1)ncn2-c1cccc(N2CCN(CCOC)CC2)c1` (as salt: HCl) [Compound 1e, 2-Methoxyethyl 1-(3-(4-(methoxyethyl)-1-piperazinyl)-phenyl)-benzimidazole-5-carboxylate] displayed a melting point of 173 to 178 °C.

Consider `COCCN1CCN(c2cccc(-n3cnc4cc(C(=O)OCCO)ccc43)c2)CC1` (as salt: HCl) [Compound 1f, 2-Hydroxyethyl 1-(3-(4-(methoxyethyl)-1-piperazinyl)-phenyl)-benzimidazole-5-carboxylate], for which the melting point is 159 to 162 °C.

For `CCCCOC(=O)c1ccc2c(c1)ncn2-c1cccc(N2CCN(CCOC)CC2)c1` (as salt: HCl) [Compound 1g, n-Butyl 1-(3-(4-(methoxyethyl)-1-piperazinyl)-phenyl)-benzimidazole-5-carboxylate], the melting point was in the range of 148 to 152 °C.

One may read the melting point as the temperature, or range, at which the solid turns liquid.
